*1 amine or outer side, *2 acyl side, *3 side chain or, on linkers, in order; H or OH if unused. Where a SMILES comes first, the peptide text is derived from it. Bridges are numbered along the chain shown (N, C = ends). [ ]: non-standard residue; d: D form. The star is where a group is joined. ξ: configuration not given here. X3 = C[C@@H](C(=O)[*:2])N(Cc1ccc2ccccc2c1)[*:1]; Phe(4-Cl) = N[C@@H](Cc1ccc(Cl)cc1)C(=O)O; d2Nal = N[C@H](Cc1ccc2ccccc2c1)C(=O)O; dNMeF = CN[C@H](Cc1ccccc1)C(=O)O; dThr(3ξ) = CC(O)[C@@H](N)C(=O)O; NMeA = CN[C@@H](C)C(=O)O; dNMeA = CN[C@H](C)C(=O)O; ξF = NC(Cc1ccccc1)C(=O)O; Abu = CC[C@H](N)C(=O)O; X2 = CC(O)[C@H](CO)N*; Ahp = NCCCCCCC(=O)O; Bn = c1ccc(C*)cc1; ξC = NC(CS)C(=O)O
Legend:
[1] = target: T1, Somatostatin receptor type 5 (Rattus norvegicus, UniProt P30938)
T1 sequence (P30938 whole entry): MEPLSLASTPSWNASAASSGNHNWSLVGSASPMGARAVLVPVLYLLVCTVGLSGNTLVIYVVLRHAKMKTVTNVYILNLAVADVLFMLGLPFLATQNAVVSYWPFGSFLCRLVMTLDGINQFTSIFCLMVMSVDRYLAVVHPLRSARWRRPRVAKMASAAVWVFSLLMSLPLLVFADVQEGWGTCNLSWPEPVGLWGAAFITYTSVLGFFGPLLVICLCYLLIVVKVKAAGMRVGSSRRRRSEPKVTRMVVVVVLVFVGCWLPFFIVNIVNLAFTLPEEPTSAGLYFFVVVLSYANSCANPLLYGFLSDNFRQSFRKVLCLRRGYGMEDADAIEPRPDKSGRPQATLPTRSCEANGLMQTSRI

[2] = target: Somatostatin receptor type 4 (Mus musculus, UniProt P49660)
Somatostatin receptor type 4, sequence (P49660 whole entry): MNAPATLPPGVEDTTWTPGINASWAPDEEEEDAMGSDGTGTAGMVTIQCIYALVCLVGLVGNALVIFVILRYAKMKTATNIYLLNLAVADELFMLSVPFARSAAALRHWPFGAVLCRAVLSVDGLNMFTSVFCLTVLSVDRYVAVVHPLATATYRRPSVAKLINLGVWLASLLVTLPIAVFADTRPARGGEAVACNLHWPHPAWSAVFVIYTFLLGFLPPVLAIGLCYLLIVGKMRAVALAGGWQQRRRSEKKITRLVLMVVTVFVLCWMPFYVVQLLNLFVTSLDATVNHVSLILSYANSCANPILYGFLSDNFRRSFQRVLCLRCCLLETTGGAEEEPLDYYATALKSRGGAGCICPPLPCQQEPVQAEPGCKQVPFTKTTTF

[3] = target: Somatostatin receptor type 3 (Mus musculus, UniProt P30935)
Somatostatin receptor type 3, sequence (P30935 whole entry): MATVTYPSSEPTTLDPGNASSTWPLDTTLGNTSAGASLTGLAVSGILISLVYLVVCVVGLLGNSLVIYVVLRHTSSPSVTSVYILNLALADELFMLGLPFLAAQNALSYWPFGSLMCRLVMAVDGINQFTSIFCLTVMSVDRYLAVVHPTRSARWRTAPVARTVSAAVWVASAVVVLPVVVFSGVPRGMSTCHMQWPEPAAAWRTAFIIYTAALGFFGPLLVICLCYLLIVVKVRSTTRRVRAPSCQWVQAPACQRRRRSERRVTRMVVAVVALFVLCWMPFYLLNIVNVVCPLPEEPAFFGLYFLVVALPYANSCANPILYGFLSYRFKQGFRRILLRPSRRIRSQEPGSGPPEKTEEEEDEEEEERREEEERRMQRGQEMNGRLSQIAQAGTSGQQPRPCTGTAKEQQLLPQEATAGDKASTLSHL

| Ki [1] | Ki [2] | Ki [3] | Structure (SMILES) |
| --- | --- | --- | --- |
| 6.16 nM | 1000 nM | – | CC[C@@H]1NC(=O)[C@H](CCCCN)NC(=O)[C@@H](Cc2c[nH]c3ccccc23)NC(=O)[C@H](Cc2ccc(O)cc2)NC(=O)[C@H](C)N(C)C(=O)[C@H](Cc2ccccc2)NC1=O [BIM-23027] (cyclo([Abu]F[NMeA]Y[dW]K)) |
| 1.2 nM | – | – | CC(C)[C@H](NC(=O)[C@H](CCCCN)NC(=O)[C@@H](Cc1c[nH]c2ccccc12)NC(=O)[C@H](Cc1ccc(O)cc1)NC(=O)[C@H](Cc1ccccc1)NC(=O)[C@@H](N)Cc1ccccc1)C(=O)N[C@@H](Cc1ccccc1)C(=O)N[C@H](C(N)=O)[C@@H](C)O [BIM-23058] (H-FFY[dW]KVFT-NH2) |
| – | 77.6 nM | 0.03 nM | CC(C)[C@H](NC(=O)[C@H](CCCCN)NC(=O)[C@@H](Cc1c[nH]c2ccccc12)NC(=O)[C@H](Cc1ccc(O)cc1)NC(=O)[C@H](Cc1ccccc1)NC(=O)[C@H](N)Cc1ccccc1)C(=O)N[C@@H](Cc1ccccc1)C(=O)N[C@H](C(N)=O)[C@@H](C)O [BIM-23058] (H-[dF]FY[dW]KVFT-NH2) |
| 4.67 nM | – | – | C[C@H](O)[C@@H]1NC(=O)C(CCCCN)NC(=O)[C@@H](Cc2c[nH]c3ccccc23)NC(=O)C(Cc2ccccc2)NC(=O)C(Cc2ccccc2)NC(=O)C(CC(N)=O)NC(=O)C(CCCCN)NC(=O)CCCCC[C@H](C(=O)O)NC(=O)[C@@H](CO)NC(=O)[C@H]([C@H](C)O)NC(=O)[C@@H](Cc2ccc(O)cc2)NC1=O (stereo not given in full) [CGP-23996] |
| 0.01 nM | 63.1 nM | – | C[C@@H](O)[C@@H]1NC(=O)[C@H](CCCCN)NC(=O)[C@@H](Cc2c[nH]c3ccccc23)NC(=O)[C@H](Cc2c[nH]c3ccccc23)NC(=O)[C@H](Cc2ccccc2)NC(=O)CCCCCCNC(=O)[C@H](Cc2ccccc2)NC1=O [L-362855] (cyclo([Ahp]FW[dW]KTF)) |
| – | 43.6 nM | – | C[C@@H](O)[C@@H]1NC(=O)[C@H](CCCCN)NC(=O)[C@@H](Cc2c[nH]c3ccccc23)NC(=O)[C@H](Cc2ccc(Cl)cc2)NC(=O)[C@H](Cc2ccccc2)NC(=O)CCCCCCNC(=O)[C@H](Cc2ccccc2)NC1=O [L-362862] (cyclo([Ahp]F[Phe(4-Cl)][dW]KTF)) |
| 0.46 nM | – | – | C[C@@H](O)[C@@H]1NC(=O)[C@H](CCCCN)NC(=O)[C@@H](Cc2c[nH]c3ccccc23)NC(=O)[C@H](Cc2ccccc2)NC(=O)[C@H](Cc2ccc(Cl)cc2)NC(=O)CCCCCCNC(=O)[C@H](Cc2ccccc2)NC1=O [L-362862] (cyclo([Ahp][Phe(4-Cl)]F[dW]KTF)) |

The next lines start with the molecule.

| Structure (SMILES) | Ki [1] | Ki [2] | Ki [3] |
| --- | --- | --- | --- |
| CC(O)[C@H](CO)NC(=O)[C@@H]1CSSCC(NC(=O)C(N)Cc2ccccc2)C(=O)N[C@H](Cc2ccccc2)C(=O)N[C@H](Cc2c[nH]c3ccccc23)C(=O)N[C@H](CCCCN)C(=O)N[C@H](C(C)O)C(=O)N1 (stereo not given in full) (H-[ξF][ξC][dF][dW][dK][dThr(3ξ)]C-X2; disulfide 2-7) | 0.57 nM | – | – |
| C[C@@H](O)[C@@H]1NC(=O)[C@H](CCCCN)NC(=O)[C@@H](Cc2c[nH]c3ccccc23)NC(=O)[C@H](Cc2ccccc2)NC(=O)[C@@H]2CCCN2C(=O)[C@H](Cc2ccccc2)NC1=O (cyclo(PF[dW]KTF)) | 3.23 nM | 1000 nM | – |
| CC(C)[C@@H]1NC(=O)[C@H](CCCCN)NC(=O)[C@@H](Cc2c[nH]c3ccccc23)NC(=O)[C@H](Cc2ccc(O)cc2)NC(=O)[C@@H](NC(=O)[C@H](N)Cc2ccc3ccccc3c2)CSSC[C@@H](C(=O)N[C@H](C(N)=O)[C@@H](C)O)NC1=O [3-(2-Naphtyl)-D-Ala-L-Cys(1)-L-Tyr-D-Trp-L-Lys-L-Val-L-Cys(1)-L-Thr-NH2] | 0.1 nM | – | – |
| C[C@@H](O)[C@@H]1NC(=O)[C@H](CCCCN)NC(=O)[C@@H](Cc2c[nH]c3ccccc23)NC(=O)[C@H](Cc2ccccc2)NC(=O)[C@@H]2CSSCC(NC1=O)C(=O)NCCCCCCC(=O)N2 [(1R,4S,7S,10R,13S,16R)-4-[(R)-1-Hydroxyethyl]-7-(4-aminobutyl)-10-(1H-indole-3-ylmethyl)-13-benzyl-28,29-dithia-2,5,8,11,14,17,25-heptaazabicyclo[14.10.4]triacontane-3,6,9,12,15,18,26-heptone] (cyclo([Ahp]CF[dW]KT[ξC]); disulfide 2-7) | 1.2 nM | 1000 nM | 0.07 nM |
| CC(C)C1NC(=O)C(CCCCN)NC(=O)C(Cc2c[nH]c3ccccc23)NC(=O)C(Cc2ccc(O)cc2)NC(=O)C(NC(=O)C(N)Cc2ccccc2)CSSCC(C(=O)NC(Cc2c[nH]c3ccccc23)C(N)=O)NC1=O (stereo not given) [CAS_71306] (H-FCYWKVCW-NH2; disulfide 2-7; configuration not given here) | 1.58 nM | – | – |
| C[C@@H](O)[C@H](NC(=O)[C@H](Cc1ccccc1)NC(=O)[C@@H](NC(=O)[C@H](CCCCN)NC(=O)[C@@H](Cc1c[nH]c2ccccc12)NC(=O)[C@H](Cc1ccccc1)NC(=O)[C@H](Cc1ccccc1)NC(=O)[C@H](N)Cc1ccccc1)[C@@H](C)O)C(N)=O [CAS_133073-82-2] (H-[dF]FF[dW]KTFT-NH2) | – | 18.2 nM | 0.41 nM |
| CC(C)C1NC(=O)C(CCCCN)NC(=O)C(Cc2c[nH]c3ccccc23)NC(=O)C(Cc2ccc(O)cc2)NC(=O)C(C)N(C)C(=O)C(Cc2ccccc2)NC1=O (stereo not given) [CAS_3086456] | 5.49 nM | – | – |
| CC(C)[C@@H]1NC(=O)[C@H](CCCCN)NC(=O)[C@@H](Cc2c[nH]c3ccccc23)NC(=O)[C@H](Cc2ccc(O)cc2)NC(=O)[C@H](C)N(C)C(=O)[C@H](Cc2ccccc2)NC1=O [CAS_3086456] | – | 1000 nM | – |
| CC(C)[C@H](NC(=O)[C@H](CCCCN)NC(=O)[C@@H](Cc1c[nH]c2ccccc12)NC(=O)[C@H](Cc1ccc(O)cc1)NC(=O)[C@H](C)NCc1ccc2ccccc2c1)C(=O)N[C@@H](C)C(=O)N[C@H](C(N)=O)[C@@H](C)O [D-Nal-Ala-Tyr-D-Trp-Lys-Val-Ala-Thr-NH2] (H-[X3]Y[dW]KVAT-NH2) | 145 nM | – | – |
| CC(C)[C@H](NC(=O)[C@H](CCCCN)NC(=O)[C@@H](Cc1c[nH]c2ccccc12)NC(=O)[C@H](Cc1ccc(O)cc1)NC(=O)[C@H](C)NC(=O)[C@H](N)Cc1ccc2ccccc2c1)C(=O)N[C@@H](C)C(=O)N[C@H](C(N)=O)[C@@H](C)O [D-Nal-Ala-Tyr-D-Trp-Lys-Val-Ala-Thr-NH2] (H-[d2Nal]AY[dW]KVAT-NH2) | – | 1000 nM | – |
| CC(CO)C(NC(=O)C1NC(=O)N[C@@H](Cc2ccc(O)cc2)C(=O)N[C@H](Cc2c[nH]c3ccccc23)C(=O)N[C@@H](CCCCN)C(=O)N[C@@H](C(C)CO)C(=O)NC(C(=O)N[C@@H](Cc2ccc3ccccc3c2)C(N)=O)SS1)C(N)=O (stereo partly drawn) [D-Nal-c[Cys-Tyr-D-Trp-Lys-Thr-Cys]-Thr-NH2] | 0.07 nM | – | – |
| CC(C)[C@H](NC(=O)[C@H](CCCCN)NC(=O)[C@@H](Cc1c[nH]c2ccccc12)NC(=O)[C@H](Cc1ccc(O)cc1)NC(=O)[C@H](C)NC(=O)[C@H](N)Cc1ccccc1)C(=O)N[C@@H](C)C(=O)N[C@H](Cc1ccc2ccccc2c1)C(N)=O [D-Phe-AIa-Tyr-D-Trp-Lys-Val-Ala-D-Nal-NH2] (H-[dF]AY[dW]KVA[d2Nal]-NH2) | 5.88 nM | 1000 nM | – |
| CC[C@@H]1NC(=O)[C@H](CCCCN)NC(=O)[C@@H](Cc2c[nH]c3ccccc23)NC(=O)[C@H](Cc2ccc(O)cc2)NC(=O)[C@@H](NC(=O)[C@H](N)Cc2ccccc2)CSSC[C@@H](C(=O)N[C@H](C(N)=O)[C@@H](C)O)NC1=O [D-Phe-L-Cys(1)-L-Tyr-D-Trp-L-Lys-L-Abu-L-Cys(1)-L-Thr-NH2] | 0.18 nM | – | – |
| CC(C)[C@H](NC(=O)[C@H](CCCCN)NC(=O)[C@@H](Cc1c[nH]c2ccccc12)NC(=O)[C@H](Cc1ccc(O)cc1)NC(=O)[C@H](Cc1ccccc1)NC(=O)[C@H](N)Cc1ccccc1)C(=O)N[C@@H](Cc1ccccc1)C(=O)N[C@H](Cc1ccccc1)C(N)=O [D-Phe-Phe-Tyr-D-Trp-Lys-Val-Phe-D-Phe-NH2] (H-[dF]FY[dW]KVF[dF]-NH2) | 3.31 nM | 251 nM | – |
| CSCC[C@H](NC(=O)[C@H](C)NC(=O)[C@@H]1CCCN1C(=O)[C@H](CC(N)=O)NC(=O)[C@H](CO)NC(=O)[C@H](CC(N)=O)NC(=O)[C@H](C)NC(=O)[C@@H](N)CO)C(=O)N[C@@H](C)C(=O)N1CCC[C@H]1C(=O)N[C@@H](CCCNC(=N)N)C(=O)N[C@@H](CCC(=O)O)C(=O)N[C@@H](CCCNC(=N)N)C(=O)N[C@@H](CCCCN)C(=O)N[C@@H](C)C(=O)NCC(=O)N[C@H]1CSSC[C@@H](C(=O)O)NC(=O)[C@H](CO)NC(=O)[C@H]([C@@H](C)O)NC(=O)[C@H](Cc2ccccc2)NC(=O)[C@H]([C@@H](C)O)NC(=O)[C@H](CCCCN)NC(=O)[C@H](Cc2c[nH]c3ccccc23)NC(=O)[C@H](Cc2ccccc2)NC(=O)[C@H](Cc2ccccc2)NC(=O)[C@H](CC(N)=O)NC(=O)[C@H](CCCCN)NC1=O [L-Ser-L-Ala-L-Asn-L-Ser-L-Asn-L-Pro-L-Ala-L-Met-L-Ala-L-Pro-L-Arg-L-Glu-L-Arg-L-Lys-L-Ala-Gly-L-Cys(1)-L-Lys-L-Asn-L-Phe-L-Phe-L-Trp-L-Lys-L-Thr-L-Phe-L-Thr-L-Ser-L-Cys(1)-OH] | – | 0.28 nM | – |
| C[C@H](O)[C@H]1NC(=O)[C@H](CCCCN)NC(=O)[C@@H](Cc2c[nH]c3ccccc23)NC(=O)[C@@H](Cc2ccccc2)NC(=O)[C@@H](C)N(C)C(=O)[C@@H](Cc2ccccc2)N(C)C1=O [N-Methylcyclo(D-Ala-D-Phe-D-Trp-L-Lys-D-Thr-N-methyl-D-Phe-)] (cyclo(K[dT][dNMeF][dNMeA][dF][dW])) | 407 nM | 1000 nM | – |
| C[C@@H](Oc1ccccc1)[C@@H]1NC(=O)[C@H](CCCCN)NC(=O)[C@@H](Cc2c[nH]c3ccccc23)NC(=O)[C@H](Cc2ccccc2)NCCCCCCNC1=O [c[Aha-Phe-D-Trp-Lys-Thr(Bzl)]] | 51.3 nM | – | – |
| C[C@@H](OCc1ccccc1)[C@@H]1NC(=O)[C@H](CCCCN)NC(=O)[C@@H](Cc2c[nH]c3ccccc23)NC(=O)[C@H](Cc2ccccc2)NC(=O)CCCCCCNC1=O [c[Aha-Phe-D-Trp-Lys-Thr(Bzl)]] (cyclo([Ahp]F[dW]KT(Bn))) | – | 1000 nM | – |

Reference: BindingDB's records for doi:10.1007/BF00173012 (Sandoz Pharma, 1994)
